Four molecules from patent US5620864A, “Acceptor for fucosyl transferase” (Health Research, Inc., priority 1992, dated 1997) can be followed below.

The test system of assay [1] is α1,3-L-fucosyltransferase of the particulate fraction of ovarian tumor. Description: Assay of α1,3-fucosyltransferase with synthetic acceptors, ovarian tumor particulate fraction. The format is biochemical, human. Conditions: for Relative Percent: 2'-methyl LacNAc = 100; for [14C] Fucose Incorporated (CPM): acceptor 3.0 mM, 37° C. 18 h. As for the experimental part:
FIG. 2 The scheme for the preparation of the particulate and soluble fractions of human ovarian tumor.
(§1) An incubation mixture contained 50 mM HEPES-NaOH, pH 7.5, 5 mM MnC12, 7 mM ATP, 3 mM NaN3, the acceptor 0.3 mM (for serum enzyme) or 3.0 mM (for tumor enzyme), 0.125 μCi of GDP-[U-^14 C] Fuc (Sp. Act. 216 mCi/mmol) and enzyme in a total volume of 0.10 ml; the control incubation mixture had everything except the acceptor. At the end of incubation at 37° C. for 18 h, the mixture was diluted with 1 ml water and passed through Dowex-1-C1 column (1 ml in a Pasteur pipet). The column was washed twice with 1 ml water; the breakthrough and wash, which contained the [^14 C] fucosylated neutral acceptor, were collected together in a scintillation vial and counted for radioactivity using the scintillation coctail 3a70 (Research Products International, Mount Prospects, Ill.) and Beckman LS9000. The Dowex column was then eluted successively with 3 ml each of 0.1M and 0.2M NaCl; these eluates which contained the [^14 C] fucosylated sulfated acceptors, were counted for radioactivity as before. Corrections were made by subtracting the radioactivity in the water and NaCl eluates of the control incubation mixture from the corresponding test fractions. The duplicate runs of samples gave almost identical values, the difference being <5%.
This finding is quite different from what we found with the soluble fraction, where α1,4-fucosyltransferase activity seems to be greater than α1,3-fucosyltransferase activity. […] The different nature of the above enzymes was made further clear, when sulfated derivatives of LacNAc was tested as acceptors.

Assay [2] deals with T1, serum α1,3-L-fucosyltransferase (Homo sapiens, UniProt P51993).
T1 construct: Sera were collected from healthy females and ovarian cancer patients; from tissue; host or cells: blood serum of ovarian cancer patients and healthy females
T1 sequence (P51993 35-359 limits assumed): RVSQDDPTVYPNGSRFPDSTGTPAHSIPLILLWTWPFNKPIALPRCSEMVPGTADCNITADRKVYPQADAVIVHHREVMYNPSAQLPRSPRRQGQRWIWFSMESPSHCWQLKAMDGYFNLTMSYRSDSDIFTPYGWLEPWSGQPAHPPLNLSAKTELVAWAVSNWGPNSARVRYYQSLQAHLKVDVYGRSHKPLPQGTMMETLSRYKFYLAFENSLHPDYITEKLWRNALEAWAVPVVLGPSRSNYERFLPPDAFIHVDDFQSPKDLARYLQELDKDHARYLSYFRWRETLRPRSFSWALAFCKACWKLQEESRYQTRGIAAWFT
Description: Assay of α1,3-fucosyltransferase with various synthetic acceptors, ovarian cancer sera as enzyme source. As to conditions: for [14C] Fucose Incorporated (CPM): acceptor 0.3 mM, 37° C. 18 h. The format is biochemical. As for the experimental part: Sera were collected from healthy females and ovarian cancer patients admitted to Roswell Park Cancer Institute in Buffalo, N.Y., USA. Ovarian tumor tissues were obtained during surgical procedures from patients with ovarian cancer. Both sera and tissues were stored frozen at -70° C. until use.
as §1
The activity of serum α1,3-fucosyltransferase was measured with the specific substrate 2'-methyl LacNAc and compared with the ability of several other synthetic substrates to act as an acceptor of fucose.
When the structure of the acceptor 2'-methyl LacNAc was modified by replacing the methyl group with sulfate group in C-2', 3', 6' or 6 position and tested their ability to act as the acceptor of fucose, the following novel findings emerged. […] The β-benzyl glycoside of 3' sulfo LacNAc was quite active (168.4%) but less than the parent compound.

The subject of assay [3] is α1,3-L-fucosyltransferase of the soluble fraction of human ovarian tumor. The experiment in a line: Assay of α1,3-fucosyltransferase with synthetic acceptors, partially purified enzyme of ovarian tumor soluble fraction. In kind it is biochemical. Conditions: for [14C] Fucose Incorporated (CPM): acceptor 3.0 mM, 37° C. 18 h. As for the experimental part: as §1
As shown in the scheme set forth in FIG. 2, the α-L-fucosidase-free extract of the tissue (40 g), after concentration by 80% (NH4)2 SO4 precipitation was fractionated on bovine IgG glycopep-Sepharose in batches of 25 ml. After washing the column with the equilibration buffer, the bound enzyme was eluted with 1 M NaCl in the same buffer. The protein positive fractions were pooled and processed as shown in the scheme 2.0 ml of the above preparation was loaded on a Sephacryl S-200 column (Superfine:2.6 cm×88.0 cm) equilibrated at 4° C. with 50 mM Tris-HC1, pH 7.0 containing 0.15M NaCl and 0.1% Triton X-100 and eluted with the same buffer. Fractions of 3.0 ml were collected. The fucosyltransferase activity was located in the effluent fractions, by assaying first every 5th fraction and then obtaining the activity profile by assaying the alternate fractions in that range, using 2'-fucosyl LacNAc as the acceptor. […] Its elution position, which is slightly later than BSA, run separately on the same column, indicates its molecular weight as <67,000 daltons. […] The enzyme has been purified 66 fold over the soluble extract with a recovery of 6.2%. The enzyme at this stage lost its activity either kept frozen at -20° C. or left at 4° C. for more than a week. However, the enzyme at the end of the previous step was fairly stable for at least two months at 4° C. So this preparation of enzyme was used in acceptor ability comparison studies.
When α1,3-fucosyltransferase activity of the partially purified enzyme preparation from the soluble portion of ovarian tumor was measured and compared with the activity of other acceptors, the following results were obtained. 2'-methyl LacNAc, LacNAc and Galβ1, 3GlcNAc were respectively 100.0%, 60.6% and 565.5% active, indicating the presence of both α1,3 and α1,4 fucosyltransferase activities in this preparation.

“And” between values parts separate entries of the source, which are not always exact repeats. Equal values may be shown once.

With `CC(=O)N[C@H]1C(O)O[C@H](COS(=O)(=O)O)[C@@H](O[C@@H]2O[C@H](CO)[C@H](O)[C@H](O)[C@H]2O)[C@@H]1O` (stereo partly drawn) [6-Sulfo LacNAc, β-D-GALACTOPYRANOSYL-(1→4)-SODIUM 2-ACETAMIDO-2-DEOXY-D-GLUCOPYRANOSE 6-SULFATE], the “Relative Percent” value was 53.3% in assay [1]; 172.4% in assay [2] (2'-methyl LacNAc = 100); 272.6% in assay [3] (2'-methyl LacNAc = 100); 272% and 272.6% in assay [3] (2'-methyl LacNAc = 100, listed as 6-sulfo LacNAc). Besides, the “[14C] Fucose Incorporated (CPM)” value was determined as 25740 CPM in assay [1], 2983 CPM in assay [2] and 20148 CPM in assay [3].

On to `CC(=O)N[C@H]1[C@H](O[C@H]2[C@@H](O)[C@@H](CO)O[C@@H](Oc3ccc([N+](=O)[O-])cc3)[C@@H]2O)O[C@H](CO)[C@@H](O[C@@H]2O[C@H](CO)[C@H](O)[C@H](O)[C@H]2O)[C@@H]1O` [LacNAcβ1,3Ga1β-O--PNP], for which the “Relative Percent” value is listed as 70.0% in assay [1], 166.8% in assay [2] (2'-methyl LacNAc = 100) and 87.0% in assay [3] (2'-methyl LacNAc = 100). Moreover, the results for the “[14C] Fucose Incorporated (CPM)” value in assay [1], in assay [2] and in assay [3] were 33759 CPM, 2886 CPM and 6432 CPM, respectively.

Take `CC(=O)N[C@H]1[C@H](OCc2ccccc2)O[C@H](CO)[C@@H](O)[C@@H]1O[C@@H]1O[C@H](CO)[C@H](O)[C@H](OS(=O)(=O)O)[C@H]1O` [3-SulfoGa1β1,3G1cNAcβ-O--Bn, Benzyl 3-0-(sodium β-D-Galactopyranosy 3-Sulfate)-2-acetamido-2-deoxy-β-D-Glucopyranoside]: the “Relative Percent” value in assay [1] is reported as 2.9%; in assay [2] (2'-methyl LacNAc = 100), 0%; in assay [2] (2'-methyl LacNAc = 100, listed as 3-Sulfo Galβ1, 3GlcNAcβ-O-Bn), “did not show any activity”; in assay [3] (2'-methyl LacNAc = 100), 415.4%; in assay [3] (2'-methyl LacNAc = 100, listed as 3-sulfo Galβ1,3GlcNAcβ-O-Bn), 415.4%; in assay [3] (2'-methyl LacNAc = 100, listed as β-benzyl glycoside of 3-sulfoGalβ1, 3 GlcNAc), 415%. Moreover, the “[14C] Fucose Incorporated (CPM)” value in assay [1] came out at 1382 CPM; in assay [2] it was 0 CPM; in assay [3] it was 30704 CPM.

As to `CC(=O)N[C@H]1[C@H](OCc2ccccc2)O[C@H](CO)[C@@H](O[C@@H]2O[C@H](CO)[C@H](O)[C@H](OS(=O)(=O)O)[C@H]2O)[C@@H]1O` [3'-Sulfo LacNAcβ-O--Bn, Benzyl 4-0-(sodium β-D-Galactopyranosyl 3-Sulfate)-2-acetamido-2-deoxy-β-D-Glucopyranoside], the “Relative Percent” value in assay [1] is on record as 33.3%; in assay [2] (2'-methyl LacNAc = 100), 168.4%; in assay [3] (2'-methyl LacNAc = 100) it was 183.8%. For the same molecule, the figures for the “[14C] Fucose Incorporated (CPM)” value in assay [1], in assay [2] and in assay [3] were 16062 CPM, 2913 CPM and 13585 CPM, respectively.
